SMILES strings stand for the structures.

Consider 1 molecule from EP0445948A2, “Prostaglandins for inhibiting cartilage damage” (G.D. Searle & Co., priority 1990, dated 1991).

Common to all, as to format: cell-based
The subject of data set [1] is IL1-treated cartilage. As to the kind of experiment: Pig articular cartilage organ culture: retention of GAG (methylene blue dye technique). As to the method: (§1) A standard organ culture method was followed. Pieces of articular cartilage (4x1x1 mm) are cultured in DMEM and 5% fetal calf serum in an atmosphere of 5% CO₂ at 30°C. The culture medium was renewed every two days in an attempt to maintain the level of the compound undergoing evaluation. Integrity of the cartilage was determined by the retention of GAG using methylene blue dye technique, results were expressed as percentage remaining in the tissue at the end of the experiment. The synthetic activity of the chondrocytes was measured by the incorporation of^ 35SO₄ into GAG. In some of the evaluations incorporation of 3H-leucine into protein was measured as an index of cell viability.
(§2) Human recombinant IL1 alpha at a concentration of 1 ng/ml (nanograms/milliliter). At this concentration it was responsible for 68% loss in GAG content over the 8 day period whereas the control with either misoprostol vehicle or misoprostol at 200 ng/ml only lost between 4 and 7%. The cartilage was incubated in the presence of IL1 and misoprostol at 50, 100 and 200 ng/ml. […] At 100 ng/ml the GAG loss is reduced to 34 percent.

The subject of data set [2] is IL1-treated cartilage. As to the kind of experiment: Pig articular cartilage organ culture: incorporation of 35SO4 into GAG (synthetic activity of chondrocytes). Particulars: (SEM). The method, then:
as §1, §2

The test system of a further data set is articular cartilage. Nature of the data set: Pig articular cartilage organ culture: incorporation of 3H-leucine into protein (index of cell viability). Particulars: 0IL1 + Miso. 200ng/ml; (SEM). The method, then: as §1, §2
In data set [3] the test system is human articular cartilage. Nature of the data set: Effect of misoprostol on IL1-induced inhibition of GAG synthesis (35SO4 incorporation after CPC precipitation). Particulars: for 35SO4 uptake into GAG: 4 days, (SEM). As to the method: The effect of misoprostol on the action of IL1 on human articular cartilage. This experiment was undertaken to determine the action of misoprostol on IL1 action on cartilage. A total of 160 replicates were performed. The study investigated the inhibition of synthesis of GAG by human articular cartilage over the IL1 concentration range 0.01 - 1 ng/ml. Misoprostol was investigated in the range of 0.1 to 100 ng/ml.
Cartilage from a person was used in this experiment. The experimental period was kept to 4 days with the medium being changed every 24 hours. The tissue was pulsed at 4 days with 5 µCi/ml ³⁵SO₄ in the conventional manner and its incorporation in GAG measured after CPC precipitation.

Take `CCCCC(C)(O)C/C=C/[C@H]1[C@H](O)CC(=O)[C@@H]1CCCCCCC(=O)OC` (mixture of isomers) [misoprostol, (+/-) methyl 11α,16-dihydroxy-16-methyl-9-oxoprost-13E-en-1-oate]: the “% Retention of GAG in tissue” value in the data set on IL1-treated cartilage [1] (0IL1 + Miso. 200ng/ml, 8 day culture, (SEM)) is 95.6 (1.9) %. In addition, the GAG loss with IL1-treated cartilage [1] (IL1 1 ng/ml + misoprostol 100 ng/ml, 8 days) was found to be 34%. In the data set with IL1-treated cartilage [1] (IL1 + misoprostol at 50, 100 and 200 ng/ml), the “inhibition of the IL1 effect (GAG loss)” value was “highly significant inhibition”. Moreover, in the data set on IL1-treated cartilage [1] (misoprostol without IL1), the “direct effect on intact cartilage” value was “no direct affect”. The “Uptake of 35 SO4 into GAG” value was 29.6 (1.2) cpm/mg x 10^3 in the data set with IL1-treated cartilage [2] (0IL1 + Miso. 200ng/ml) and 6.3 (0.8) cpm/mg x 10^3 with IL1-treated cartilage [2] (IL1 + Miso. 200ng/ml). The “Uptake of 3H Leucine” value with articular cartilage is reported as 70.9 (4.8) cpm/mg. The “protection against IL1-induced inhibition of GAG synthesis” value in data set [3] (0.01 ng/ml IL1 (50% inhibition level), misoprostol at 10 ng/ml and at 100 ng/ml) is listed as “significant protection”; in data set [3] (0.1 ng/ml IL1, misoprostol 100 ng/ml) it was “modest protective activity”; in data set [3] (0.1 ng/ml IL1, misoprostol below 100 ng/ml), “ineffective”. Besides, the “protection against the action of 0.01 ng/ml hrIL1α” value in data set [3] (0.01 ng/ml hrIL1α, misoprostol 100 ng/ml) is on record as “complete protection”. Also, the “35SO4 uptake into GAG” value was 3086 (306) cpm/mg in data set [3] (IL1 conc. 0.01 ng/ml, Misoprostol 0.1 ng/ml); 2919 (244) cpm/mg in data set [3] (IL1 conc. 0.01 ng/ml, Misoprostol 1.0 ng/ml); 1113 (119) cpm/mg in data set [3] (IL1 conc. 0.1 ng/ml, Misoprostol 0.1 ng/ml); 1062 (71) cpm/mg in data set [3] (IL1 conc. 0.1 ng/ml, Misoprostol 1.0 ng/ml); 1102 (165) cpm/mg in data set [3] (IL1 conc. 0.1 ng/ml, Misoprostol 10.0 ng/ml); 183 (23) cpm/mg in data set [3] (IL1 conc. 1.0 ng/ml, Misoprostol 0.1 ng/ml). Also, the “35SO4 uptake into GAG” value in data set [3] (IL1 conc. 1.0 ng/ml, Misoprostol 1.0 ng/ml) was 171 (14) cpm/mg; in data set [3] (IL1 conc. 1.0 ng/ml, Misoprostol 10.0 ng/ml), 219 (28) cpm/mg; in data set [3] (IL1 conc. 1.0 ng/ml, Misoprostol 100.0 ng/ml), 193 (26) cpm/mg.
